pEC50: −log10 of the molar value.
Target: T1, GPR119 (Homo sapiens, UniProt Q8TDV5)
T1 construct: host or cells: CHO-K1 (CRE-bla reporter, doxycycline-induced)
T1 sequence (Q8TDV5 1-335): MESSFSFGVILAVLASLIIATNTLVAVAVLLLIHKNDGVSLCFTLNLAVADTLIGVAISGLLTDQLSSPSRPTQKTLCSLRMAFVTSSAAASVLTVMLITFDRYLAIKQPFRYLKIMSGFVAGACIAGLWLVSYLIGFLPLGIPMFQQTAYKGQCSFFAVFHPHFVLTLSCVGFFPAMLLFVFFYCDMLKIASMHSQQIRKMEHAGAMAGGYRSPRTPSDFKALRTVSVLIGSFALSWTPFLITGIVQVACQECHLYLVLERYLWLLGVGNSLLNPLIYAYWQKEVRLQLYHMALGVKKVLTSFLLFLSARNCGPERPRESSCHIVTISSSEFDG
Assay: Controlling Effect of GPR119 in CRE-bla CHO-K1 Cells (EC50)
Format: cell-based
Details: GPR119 CRE-bla CHO-K1 cell line, 5 hr incubation with compound, β-lactamase LiveBLAzer-FRET B/G readout; read-out: controlling effect against GPR119 in CRE-bla CHO-K1 cell line (EC50)
Method: Controlling Effect of GPR119 in CRE-bla CHO-K1 Cells (EC50)
The day before the experiment, GPR119 CRE-bla CHO-K1 cell line purchased from Invitrogen was seeded in a 96 black well plate in an amount of 80 μl at a density of 5×10^4 cells. After the seeding, 10 μl of doxycycline in a concentration of 1 μg/ml was added to each well and incubated in an incubator at 37° C. under 5% CO2 for about 16 to 20 hr.
The day of experiment, sample compounds were performed a 10-fold serial dilution with a culture medium at various concentrations of 1 uM to […]. Considering that the culture medium used in the seeding and doxycycline are together applied, the sample compounds were diluted to a 5-fold dilution of the planned concentration. 20 μl of the compound diluted with the culture medium was added to each well and incubated in the incubator for 5 hr. The compound-untreated group was added with 20 μl of 0.5% dimethyl sulfoxide (DMSO) diluted with the culture medium. After 5 hr from the incubation, substrate mixture of a 6-fold concentration were prepared; 6 μl of 1 mM LiveBLAzer™-FRET B/G(CCF4-AM) substrate, 60 μl of solution B, 904 μl of solution C and 30 μl of solution D. 12 μl of the substrate mixture was added to each well and allowed to be kept at room temperature for 2 hr with shading the light. Fluorescence intensity value of blue channel and green channel was determined by a fluorescence microplate reader at 409 nm/460 nm and 409 nm/[…] (excitation/emission), respectively. In order to confirm the controlling effect of the inventive compounds against GPR119, EC50 (half maximal effective concentration) was determined based on the determined values. EC50, the concentration at which 50% activity of β-lactamase, was determined according to the following Equation: Equation=[(Ti−Tz)/(C−Tz)]×100
[Wherein, Ti: Cell density of the compound-treated group; Tz: Cell density of the negative control group; and C: Cell density of the positive control group]

SMILES | pEC50
COC(=O)c1ccc(-c2csc3c(N4CCC(c5nc(C(C)C)no5)CC4)ncnc23)cc1 [Example 16, 4-{4-[4-(3-isopropyl-[1,2,4]oxadiazol-5-yl)-piperidin-1-yl]-thieno[3,2-d]pyrimidin-7-yl}-benzoic acid methyl ester] | 6.00 to 7.00
CC(C)(C)c1noc(C2CCN(c3ncnc4c(-c5ccc(S(C)(=O)=O)cc5F)csc34)CC2)n1 [Example 17, 4-[4-(3-tert-butyl-[1,2,4]oxadiazol-5-yl)-piperidin-1-yl]-7-(2-fluoro-4-methanesulfonyl-phenyl)-thieno[3,2-d]pyrimidine] | > 7.00
CS(=O)(=O)c1ccc(-c2csc3c(N4CCC(c5nc(C6CC6)no5)CC4)ncnc23)c(F)c1 [Example 18, 4-[4-(3-cyclopropyl-[1,2,4]oxadiazol-5-yl)-piperidin-1-yl]-7-(2-fluoro-4-methanesulfonyl-phenyl)-thieno[3,2-d]pyrimidine] | > 7.00
CS(=O)(=O)c1ccc(-c2csc3c(N4CCC(c5nc(C6CCCC6)no5)CC4)ncnc23)c(F)c1 [Example 19, 4-[4-(3-cyclopentyl-[1,2,4]oxadiazol-5-yl)-piperidin-1-yl]-7-(2-fluoro-4-methanesulfonyl-phenyl)-thieno[3,2-d]pyrimidine] | > 7.00
CCCS(=O)(=O)c1ccc(-c2csc3c(N4CCC(c5nc(C(C)C)no5)CC4)ncnc23)cc1 [Example 20, 4-[4-(3-isopropyl-[1,2,4]oxadiazol-5-yl)-piperidin-1-yl]-7-(4-(propylsulfonyl)phenyl)-thieno[3,2-d]pyrimidine] | > 7.00
CC(C)c1noc(C2CCN(c3ncnc4c(-c5ccc(S(=O)(=O)C6CC6)cc5)csc34)CC2)n1 [Example 21, 7-(4-(cyclopropylsulfonyl)phenyl)-4-[4-(3-isopropyl-[1,2,4]oxadiazol-5-yl)-piperidin-1-yl]-thieno[3,2-d]pyrimidine] | > 7.00
CC(C)c1noc(C2CCN(c3ncnc4c(-c5ccc(S(=O)(=O)C(C)C)cc5)csc34)CC2)n1 [Example 22, 4-[4-(3-isopropyl-[1,2,4]oxadiazol-5-yl)-piperidin-1-yl]-7-(4-(isopropylsulfonyl)phenyl)-thieno[3,2-d]pyrimidine] | > 7.00
CC(C)c1noc(C2CCN(c3ncnc4c(-c5ccc(S(=O)(=O)C6CCCC6)cc5)csc34)CC2)n1 [Example 23, 7-(4-(cyclopentylsulfonyl)phenyl)-4-[4-(3-isopropyl-[1,2,4]oxadiazol-5-yl)-piperidin-1-yl]-thieno[3,2-d]pyrimidine] | > 7.00
CCCS(=O)(=O)c1ccc(-c2csc3c(N4CCC(c5nc(C(C)C)no5)CC4)ncnc23)c(F)c1 [Example 24, 7-4-(2-fluoro-(4-propylsulfonyl)phenyl)-4-[4-(3-isopropyl-[1,2,4]oxadiazol-5-yl)-piperidin-1-yl]-thieno[3,2-d]pyrimidine] | > 7.00
Cn1cc(-c2ccc(S(C)(=O)=O)cc2)c2ncnc(OC3CCN(C(=O)OC(C)(C)C)CC3)c21 [Example 25, tert-butyl 4-(5-methyl-7-(4-methanesulfonyl-phenyl)-5H-pyrrolo[3,2-d]pyrimidin-4-yloxy)piperidine-1-carboxylate] | > 7.00
Cn1cc(-c2ccc(S(C)(=O)=O)cc2)c2ncnc(OC3CCNCC3)c21 [Example 26, 5-methyl-7-(4-methanesulfonyl-phenyl)-4-(piperidin-4-yloxy)-5H-pyrrolo[3,2-d]pyrimidine] | < 6.00
CCc1cnc(N2CCC(Oc3ncnc4c(-c5ccc(S(C)(=O)=O)cc5)cn(C)c34)CC2)nc1 [Example 27, 4-(1-(5-ethylpyrimidin-2-yl)piperidin-4-yloxy)-5-methyl-7-(4-methanesulfonyl-phenyl)-5H-pyrrolo[3,2-d]pyrimidine] | > 7.00
Cn1cc(-c2ccc(S(C)(=O)=O)cc2)c2ncnc(OC3CCN(c4ncc(C(F)(F)F)cn4)CC3)c21 [Example 28, 5-methyl-7-(4-methanesulfonyl-phenyl)-4-(1-(5-(trifluoromethyl)pyrimidin-2-yl)piperidin-4-yloxy)-5H-pyrrolo[3,2-d]pyrimidine] | > 7.00
CCc1cnc(N2CCC(Oc3ncnc4c(-c5ccc(S(C)(=O)=O)cc5F)cn(C)c34)CC2)nc1 [Example 29, 4-(1-(5-ethylpyrimidin-2-yl)piperidin-4-yloxy)-7-(2-fluoro-4-methanesulfonyl-phenyl)-5-methyl-5H-pyrrolo[3,2-d]pyrimidine] | > 7.00
CCCc1cnc(N2CCC(Oc3ncnc4c(-c5ccc(S(C)(=O)=O)cc5F)cn(C)c34)CC2)nc1 [Example 30] | > 7.00
Cn1cc(-c2ccc(S(C)(=O)=O)cc2F)c2ncnc(OC3CCN(c4ncc(C(F)(F)F)cn4)CC3)c21 [Example 31, 7-(2-fluoro-4-methanesulfonyl-phenyl)-5-methyl-4-(1-(5-(trifluoromethyl)pyrimidin-2-yl)piperidin-4-yloxy)-5H-pyrrolo[3,2-d]pyrimidine] | > 7.00
CCc1cnc(N2CCC(Oc3ncnc4c(-c5ccc(S(C)(=O)=O)cc5)cn(CC)c34)CC2)nc1 [Example 32, 5-ethyl-4-(1-(5-ethylpyrimidin-2-yl)piperidin-4-yloxy)-7-(4-methanesulfonyl-phenyl)-5H-pyrrolo[3,2-d]pyrimidine] | > 7.00
CCc1cnc(N2CCC(Oc3ncnc4c(-c5ccc(S(C)(=O)=O)cc5F)cn(CC)c34)CC2)nc1 [Example 33, 5-ethyl-4-(1-(5-ethylpyrimidin-2-yl)piperidin-4-yloxy)-7-(2-fluoro-4-methanesulfonyl-phenyl)-5H-pyrrolo[3,2-d]pyrimidine] | > 7.00
CCCc1cnc(N2CCC(Oc3ncnc4c(-c5ccc(S(C)(=O)=O)cc5F)cn(CC)c34)CC2)nc1 [Example 34, 5-ethyl-7-(2-fluoro-4-methanesulfonyl-phenyl)-4-(1-(5-propylpyrimidin-2-yl)piperidin-4-yloxy)-5H-pyrrolo[3,2-d]pyrimidine] | > 7.00
CC(C)c1noc(N2CCC(Oc3ncnc4c(-c5ccc(S(C)(=O)=O)cc5)cn(C)c34)CC2)n1 [Example 35, 3-isopropyl-5-(4-(5-methyl-7-(4-methanesulfonyl-phenyl)-5H-pyrrolo[3,2-d]pyrimidin-4-yloxy)piperidin-1-yl)-1,2,4-oxadiazole] | > 7.00
CC(C)c1noc(N2CCC(Oc3ncnc4c(-c5ccc(S(C)(=O)=O)cc5F)cn(C)c34)CC2)n1 [Example 36, 5-(4-(7-(2-fluoro-4-methanesulfonyl-phenyl)-5-methyl-5H-pyrrolo[3,2-d]pyrimidin-4-yloxy)piperidin-1-yl)-3-isopropyl-1,2,4-oxadiazole] | > 7.00
CCn1cc(-c2ccc(S(C)(=O)=O)cc2F)c2ncnc(OC3CCN(c4nc(C(C)C)no4)CC3)c21 [Example 37, 5-(4-(5-ethyl-7-(2-fluoro-4-methanesulfonyl-phenyl)-5H-pyrrolo[3,2-d]pyrimidin-4-yloxy)piperidin-1-yl)-3-isopropyl-1,2,4-oxadiazole] | > 7.00
CC(C)c1noc(N2CC[C@H](Oc3ncnc4c(-c5ccc(S(C)(=O)=O)cc5)cn(C)c34)C2)n1 [Example 38, 4-[1-(3-isopropyl-[1,2,4]oxadiazol-5-yl)-pyrrolidin-3-yloxy]-7-(4-methanesulfonyl-phenyl)-5-methyl-5H-pyrrolo[3,2-d]pyrimidine] | < 6.00

From patent US8853213B2, “Bicyclic compound for modulating G protein-coupled receptors” (Hanmi Pharm. Co., Ltd, priority 2011, dated 2014)
